pIC50: −log10 of the molar value.
What was measured:
[1] = target: T1, Amine oxidase [flavin-containing] B (Homo sapiens, UniProt P27338); test: biochemical
T1 sequence (P27338 whole entry): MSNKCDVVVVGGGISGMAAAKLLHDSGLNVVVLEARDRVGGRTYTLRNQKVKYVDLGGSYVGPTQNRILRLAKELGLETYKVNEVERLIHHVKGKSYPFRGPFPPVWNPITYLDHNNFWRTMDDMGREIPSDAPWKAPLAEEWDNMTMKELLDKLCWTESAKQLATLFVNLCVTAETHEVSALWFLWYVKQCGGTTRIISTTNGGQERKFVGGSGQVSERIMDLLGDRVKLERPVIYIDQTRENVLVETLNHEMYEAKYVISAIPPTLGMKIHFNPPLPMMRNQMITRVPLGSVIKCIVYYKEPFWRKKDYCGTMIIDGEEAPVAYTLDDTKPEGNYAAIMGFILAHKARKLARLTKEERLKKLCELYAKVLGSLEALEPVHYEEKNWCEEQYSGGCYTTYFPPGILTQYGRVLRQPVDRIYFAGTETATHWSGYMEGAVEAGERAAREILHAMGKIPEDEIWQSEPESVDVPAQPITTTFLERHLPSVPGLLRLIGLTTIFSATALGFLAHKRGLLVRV
Description: Inhibition of human recombinant MAO-B expressed in baculovirus infected BTI insect cells using luminogenic MAO substrate incubated for 1 hr by luciferin-based luminescence assay

[2] = target: T2, Amine oxidase [flavin-containing] A (Homo sapiens, UniProt P21397); test: biochemical
T2 sequence (P21397 whole entry): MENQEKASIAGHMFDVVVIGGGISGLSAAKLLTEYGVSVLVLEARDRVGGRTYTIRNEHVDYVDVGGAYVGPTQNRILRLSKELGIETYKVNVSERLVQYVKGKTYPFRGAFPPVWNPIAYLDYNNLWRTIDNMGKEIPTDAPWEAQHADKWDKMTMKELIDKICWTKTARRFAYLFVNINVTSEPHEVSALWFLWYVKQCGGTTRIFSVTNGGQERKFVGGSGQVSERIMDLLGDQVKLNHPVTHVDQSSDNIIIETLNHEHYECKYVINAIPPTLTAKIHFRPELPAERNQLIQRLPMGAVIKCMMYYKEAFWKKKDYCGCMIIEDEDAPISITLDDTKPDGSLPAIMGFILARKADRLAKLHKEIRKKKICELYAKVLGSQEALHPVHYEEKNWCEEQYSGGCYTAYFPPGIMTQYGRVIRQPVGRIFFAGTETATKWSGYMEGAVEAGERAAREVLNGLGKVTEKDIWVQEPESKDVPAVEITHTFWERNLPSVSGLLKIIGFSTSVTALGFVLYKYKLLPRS
Description: Inhibition of human recombinant MAO-A expressed in baculovirus infected BTI insect cells using luminogenic MAO substrate incubated for 1 hr by luciferin-based luminescence assay

RPMI-8226 = test: Antiproliferative activity against human RPMI-8226 cells assessed as inhibition of cell growth incubated for 240 hrs by MTS assay; format: functional, cell-based; conditions: RPMI-8226, 240 h
MV4-11 = test: Antiproliferative activity against human MV4-11 cells assessed as inhibition of cell growth incubated for 240 hrs by MTS assay; format: functional, cell-based; conditions: MV4-11, 240 h

SMILES	pIC50 [1]	pIC50 [2]	pIC50 (RPMI-8226)	pIC50 (MV4-11)
COc1cccc(S(=O)(=O)N2CCc3cc(C4CC4NCC4CCNCC4)ccc32)c1 (trans isomer)	< 4.00	–	–	–
CC(C)(C)C(=O)N1CCc2cc(C3CC3NCC3CCNCC3)ccc21 (trans isomer)	–	< 4.00	< 4.70	5.91
CCC(=O)N1CCc2cc(C3CC3NCC3CCNCC3)ccc21 (trans isomer)	< 4.00	< 4.00	–	5.12
O=S(=O)(c1ccc(-c2ccccc2)cc1)N1CCc2cc(C3CC3NCC3CCNCC3)ccc21 (trans isomer)	–	< 4.00	–	–
CCCC(=O)N1CCc2cc(C3CC3NCC3CCNCC3)ccc21 (stereo not given)	< 4.00	< 4.00	–	4.72
O=C(Cc1ccccc1)N1CCc2cc(C3CC3NCC3CCNCC3)ccc21 (trans isomer)	< 4.00	< 4.00	–	–
O=S(=O)(c1ccccc1)N1CCc2cc(C3CC3NCCC3CCNCC3)ccc21 (trans isomer)	< 4.00	< 4.00	< 4.70	5.92
O=S(=O)(N1CCc2cc(C3CC3NCC3CCNCC3)ccc21)C(F)(F)F (trans isomer)	–	2.06	–	–
O=C(c1ccccc1)N1CCc2cc(C3CC3NCC3CCNCC3)ccc21 (trans isomer)	–	< 4.00	–	5.38
CS(=O)(=O)N1CCc2cc(C3CC3NCC3CCNCC3)ccc21 (stereo not given)	< 4.00	< 4.00	–	5.62
O=S(=O)(C1CCCCC1)N1CCc2cc(C3CC3NCC3CCNCC3)ccc21 (stereo not given)	< 4.00	< 4.00	–	–
